Measured values: paper PMC8708872, “Discovery of a Novel Template, 7-Substituted 7-Deaza-4′-Thioadenosine Derivatives as Multi-Kinase Inhibitors” (Pharmaceuticals, 2021)

What was measured:
Assay in all cases: Kinome scan
Format in all cases: binding
ADCK3 = target: T1, ADCK3 (Homo sapiens, UniProt Q8NI60); conditions: 1000 nM
T1 construct: purchased Eurofins DiscoverX Corporation
Protocol: (§1) The kinome scan assays were carried out at Eurofins DiscoverX Corporation. For kinome scan profiling of compound 1g, it was screened at 1μM against 96 kinases (N = 2 independent experiments). The results for binding interactions are reported as % inhibition, where higher values indicate strong affinity; see the Supporting Information, Table S1 for full kinome profile.

AKT2 = target: T2, AKT2 (Homo sapiens, UniProt P31751); conditions: 1000 nM
T2 construct: purchased Eurofins DiscoverX Corporation
Protocol: as §1

ALK = target: T3, ALK (Homo sapiens, UniProt Q9UM73); conditions: 1000 nM
T3 construct: purchased Eurofins DiscoverX Corporation
Protocol: as §1

AURKB = target: T4, AURKB (Homo sapiens, UniProt Q96GD4); conditions: 1000 nM
T4 construct: purchased Eurofins DiscoverX Corporation
Protocol: as §1

BRAF(V600E) = target: T5, BRAF(V600E) (Homo sapiens, UniProt P15056, V600E); conditions: 1000 nM
T5 construct: purchased Eurofins DiscoverX Corporation
Protocol: as §1

BTK = target: T6, BTK (Homo sapiens, UniProt Q06187); conditions: 1000 nM
T6 construct: purchased Eurofins DiscoverX Corporation
T6 sequence (Q06187 whole entry): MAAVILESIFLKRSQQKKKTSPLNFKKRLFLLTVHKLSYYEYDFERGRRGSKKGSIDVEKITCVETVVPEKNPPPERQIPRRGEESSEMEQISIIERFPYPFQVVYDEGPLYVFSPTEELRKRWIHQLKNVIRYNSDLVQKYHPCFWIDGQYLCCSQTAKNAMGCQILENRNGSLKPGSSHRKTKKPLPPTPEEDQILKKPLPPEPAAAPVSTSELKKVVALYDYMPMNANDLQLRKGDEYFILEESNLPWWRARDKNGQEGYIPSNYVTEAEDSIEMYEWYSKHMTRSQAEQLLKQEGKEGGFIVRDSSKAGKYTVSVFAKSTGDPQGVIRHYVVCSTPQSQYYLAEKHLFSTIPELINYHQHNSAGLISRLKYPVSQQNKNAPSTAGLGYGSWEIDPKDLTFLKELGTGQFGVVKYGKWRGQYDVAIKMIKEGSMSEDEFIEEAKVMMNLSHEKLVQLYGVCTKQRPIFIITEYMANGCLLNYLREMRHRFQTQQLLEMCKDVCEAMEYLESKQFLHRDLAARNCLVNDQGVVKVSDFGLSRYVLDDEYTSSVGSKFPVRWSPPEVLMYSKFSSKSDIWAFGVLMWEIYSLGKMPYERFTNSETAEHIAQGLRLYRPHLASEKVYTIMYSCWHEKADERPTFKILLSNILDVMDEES
Protocol: as §1

CDK11 = target: T7, CDK11 (Homo sapiens, UniProt Q9BWU1); conditions: 1000 nM
T7 construct: purchased Eurofins DiscoverX Corporation
Protocol: as §1

CDK7 = target: T8, CDK7 (Homo sapiens, UniProt P50613); conditions: 1000 nM
T8 construct: purchased Eurofins DiscoverX Corporation
Protocol: as §1

CDK9 = target: T9, CDK9 (Homo sapiens, UniProt P50750); conditions: 1000 nM
T9 construct: purchased Eurofins DiscoverX Corporation
Protocol: as §1

CSF1R = target: T10, CSF1R (Homo sapiens, UniProt P07333); conditions: 1000 nM
T10 construct: purchased Eurofins DiscoverX Corporation
Protocol: as §1

CSNK1D = target: T11, CSNK1D (Homo sapiens, UniProt P48730)
T11 construct: purchased Eurofins DiscoverX Corporation
T11 sequence (P48730 whole entry): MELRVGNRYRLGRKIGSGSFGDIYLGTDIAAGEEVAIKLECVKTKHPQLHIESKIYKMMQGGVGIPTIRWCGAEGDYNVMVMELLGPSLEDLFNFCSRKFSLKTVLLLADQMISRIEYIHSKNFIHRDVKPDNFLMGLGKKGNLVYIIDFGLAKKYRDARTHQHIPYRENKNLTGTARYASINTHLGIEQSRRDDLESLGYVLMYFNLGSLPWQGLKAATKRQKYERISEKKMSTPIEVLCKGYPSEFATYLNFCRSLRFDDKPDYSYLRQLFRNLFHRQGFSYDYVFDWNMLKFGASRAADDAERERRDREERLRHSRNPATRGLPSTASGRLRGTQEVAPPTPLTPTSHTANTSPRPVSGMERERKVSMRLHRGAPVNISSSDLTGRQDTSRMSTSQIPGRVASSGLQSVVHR
Protocol: as §1

CSNK1G2 = target: T12, CSNK1G2 (Homo sapiens, UniProt P78368); conditions: 1000 nM
T12 construct: purchased Eurofins DiscoverX Corporation
T12 sequence (P78368 whole entry): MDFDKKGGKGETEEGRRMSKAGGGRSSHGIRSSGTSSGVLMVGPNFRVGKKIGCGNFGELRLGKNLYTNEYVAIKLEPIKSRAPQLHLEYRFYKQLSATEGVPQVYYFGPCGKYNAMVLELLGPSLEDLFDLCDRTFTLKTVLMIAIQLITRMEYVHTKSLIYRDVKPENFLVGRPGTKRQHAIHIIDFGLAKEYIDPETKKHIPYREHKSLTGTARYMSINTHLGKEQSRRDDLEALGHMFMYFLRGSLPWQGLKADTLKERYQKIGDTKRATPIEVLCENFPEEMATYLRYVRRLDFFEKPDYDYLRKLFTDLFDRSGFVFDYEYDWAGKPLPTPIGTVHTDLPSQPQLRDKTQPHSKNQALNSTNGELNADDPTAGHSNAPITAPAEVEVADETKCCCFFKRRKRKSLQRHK
Protocol: as §1

EPHA2 = target: T13, EPHA2 (Homo sapiens, UniProt P29317); conditions: 1000 nM
T13 construct: purchased Eurofins DiscoverX Corporation
Protocol: as §1

ERBB4 = target: T14, ERBB4 (Homo sapiens, UniProt Q15303); conditions: 1000 nM
T14 construct: purchased Eurofins DiscoverX Corporation
Protocol: as §1

FGFR3 = target: T15, FGFR3 (Homo sapiens, UniProt P22607); conditions: 1000 nM
T15 construct: purchased Eurofins DiscoverX Corporation
T15 sequence (P22607 23-806): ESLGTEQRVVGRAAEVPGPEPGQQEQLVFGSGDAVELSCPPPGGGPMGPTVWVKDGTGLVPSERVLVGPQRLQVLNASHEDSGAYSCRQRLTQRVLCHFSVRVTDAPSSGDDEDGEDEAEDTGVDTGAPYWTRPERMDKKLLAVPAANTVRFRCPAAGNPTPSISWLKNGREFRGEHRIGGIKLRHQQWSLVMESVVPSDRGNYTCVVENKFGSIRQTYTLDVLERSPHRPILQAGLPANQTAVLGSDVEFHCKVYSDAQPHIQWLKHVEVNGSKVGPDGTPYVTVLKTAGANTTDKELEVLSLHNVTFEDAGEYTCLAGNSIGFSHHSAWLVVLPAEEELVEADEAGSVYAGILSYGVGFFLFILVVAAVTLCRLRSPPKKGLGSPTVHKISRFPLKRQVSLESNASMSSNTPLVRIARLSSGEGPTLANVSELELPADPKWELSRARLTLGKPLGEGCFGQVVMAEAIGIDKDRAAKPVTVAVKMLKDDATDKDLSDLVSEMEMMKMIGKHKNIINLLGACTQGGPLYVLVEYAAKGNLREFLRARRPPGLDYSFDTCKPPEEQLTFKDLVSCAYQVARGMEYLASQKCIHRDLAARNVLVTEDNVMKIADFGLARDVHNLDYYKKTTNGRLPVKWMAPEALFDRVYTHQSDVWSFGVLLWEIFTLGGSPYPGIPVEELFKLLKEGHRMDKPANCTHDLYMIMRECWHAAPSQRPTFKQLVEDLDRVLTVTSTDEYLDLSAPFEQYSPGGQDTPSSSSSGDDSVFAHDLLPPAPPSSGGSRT
Protocol: as §1

GSK3B = target: T16, GSK3B (Homo sapiens, UniProt P49841); conditions: 1000 nM
T16 construct: purchased Eurofins DiscoverX Corporation
Protocol: as §1

IKK-alpha = target: T17, IKK-alpha (Homo sapiens, UniProt O15111); conditions: 1000 nM
T17 construct: purchased Eurofins DiscoverX Corporation
Protocol: as §1

IKK-beta = target: T18, IKK-beta (Homo sapiens, UniProt O14920); conditions: 1000 nM
T18 construct: purchased Eurofins DiscoverX Corporation
Protocol: as §1

INSR = target: T19, INSR (Homo sapiens, UniProt P06213); conditions: 1000 nM
T19 construct: purchased Eurofins DiscoverX Corporation
Protocol: as §1

KIT(D816V) = target: T20, KIT(D816V) (Homo sapiens, UniProt P10721, D816V); conditions: 1000 nM
T20 construct: purchased Eurofins DiscoverX Corporation
Protocol: as §1

KIT(V559D,T670I) = target: T21, KIT(V559D,T670I) (Homo sapiens, UniProt P10721, T670I/V559D); conditions: 1000 nM
T21 construct: purchased Eurofins DiscoverX Corporation
Protocol: as §1

LKB1 = target: T22, LKB1 (Homo sapiens, UniProt Q15831); conditions: 1000 nM
T22 construct: purchased Eurofins DiscoverX Corporation
Protocol: as §1

MAPKAPK2 = target: T23, MAPKAPK2 (Homo sapiens, UniProt P49137); conditions: 1000 nM
T23 construct: purchased Eurofins DiscoverX Corporation
T23 sequence (P49137 whole entry): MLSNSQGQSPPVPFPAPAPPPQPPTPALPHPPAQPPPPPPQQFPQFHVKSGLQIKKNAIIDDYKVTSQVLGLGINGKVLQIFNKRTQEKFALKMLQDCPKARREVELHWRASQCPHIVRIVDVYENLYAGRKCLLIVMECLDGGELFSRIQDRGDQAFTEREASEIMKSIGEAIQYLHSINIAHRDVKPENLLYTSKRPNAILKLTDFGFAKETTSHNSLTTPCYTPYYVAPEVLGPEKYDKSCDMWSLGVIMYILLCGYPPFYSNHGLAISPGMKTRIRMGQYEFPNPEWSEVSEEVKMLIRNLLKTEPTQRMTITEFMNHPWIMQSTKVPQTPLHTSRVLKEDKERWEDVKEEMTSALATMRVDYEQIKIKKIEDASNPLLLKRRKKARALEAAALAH
Protocol: as §1

MARK3 = target: T24, MARK3 (Homo sapiens, UniProt P27448); conditions: 1000 nM
T24 construct: purchased Eurofins DiscoverX Corporation
T24 sequence (P27448 whole entry): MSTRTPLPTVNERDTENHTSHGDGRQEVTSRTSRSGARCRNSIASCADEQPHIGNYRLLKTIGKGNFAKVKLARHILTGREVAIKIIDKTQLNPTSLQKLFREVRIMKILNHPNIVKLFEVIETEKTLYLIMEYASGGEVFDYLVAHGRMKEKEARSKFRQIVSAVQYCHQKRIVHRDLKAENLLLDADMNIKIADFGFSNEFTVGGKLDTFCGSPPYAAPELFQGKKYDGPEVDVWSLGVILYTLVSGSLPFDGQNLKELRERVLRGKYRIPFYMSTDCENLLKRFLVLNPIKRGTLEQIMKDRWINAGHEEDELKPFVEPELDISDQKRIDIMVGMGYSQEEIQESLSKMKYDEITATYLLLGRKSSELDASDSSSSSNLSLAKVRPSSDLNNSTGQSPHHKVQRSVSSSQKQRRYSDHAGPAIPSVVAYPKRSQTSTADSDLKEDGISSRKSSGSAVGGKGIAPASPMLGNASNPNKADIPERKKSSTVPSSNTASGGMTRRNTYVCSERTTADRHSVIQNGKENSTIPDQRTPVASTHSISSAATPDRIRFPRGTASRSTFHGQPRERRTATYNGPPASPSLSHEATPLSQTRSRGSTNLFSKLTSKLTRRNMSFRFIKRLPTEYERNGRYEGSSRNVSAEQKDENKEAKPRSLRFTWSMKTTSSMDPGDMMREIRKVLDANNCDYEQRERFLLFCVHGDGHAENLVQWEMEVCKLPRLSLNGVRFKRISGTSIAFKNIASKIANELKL
Protocol: as §1

MEK2 = target: T25, MEK2 (Homo sapiens, UniProt P36507); conditions: 1000 nM
T25 construct: purchased Eurofins DiscoverX Corporation
Protocol: as §1

PAK4 = target: T26, PAK4 (Homo sapiens, UniProt O96013); conditions: 1000 nM
T26 construct: purchased Eurofins DiscoverX Corporation
Protocol: as §1

PDGFRA = target: T27, PDGFRA (Homo sapiens, UniProt P16234); conditions: 1000 nM
T27 construct: purchased Eurofins DiscoverX Corporation
Protocol: as §1

PDPK1 = target: T28, PDPK1 (Homo sapiens, UniProt O15530); conditions: 1000 nM
T28 construct: purchased Eurofins DiscoverX Corporation
Protocol: as §1

PIK3CA = target: T29, PIK3CA (Homo sapiens, UniProt P42336); conditions: 1000 nM
T29 construct: purchased Eurofins DiscoverX Corporation
Protocol: as §1

PIM1 = target: T30, PIM1 (Homo sapiens, UniProt P11309); conditions: 1000 nM
T30 construct: purchased Eurofins DiscoverX Corporation
Protocol: as §1

PIM3 = target: T31, PIM3 (Homo sapiens, UniProt Q86V86); conditions: 1000 nM
T31 construct: purchased Eurofins DiscoverX Corporation
Protocol: as §1

PKAC-alpha = target: T32, PKAC-alpha (Homo sapiens, UniProt P17612); conditions: 1000 nM
T32 construct: purchased Eurofins DiscoverX Corporation
Protocol: as §1

RET = target: T33, RET (Homo sapiens, UniProt P07949); conditions: 1000 nM
T33 construct: purchased Eurofins DiscoverX Corporation
Protocol: as §1

ROCK2 = target: T34, ROCK2 (Homo sapiens, UniProt O75116); conditions: 1000 nM
T34 construct: purchased Eurofins DiscoverX Corporation
Protocol: as §1

[1] = target: T35, RSK2(Kin.Dom.1-N-terminal) (Homo sapiens, UniProt P51812); conditions: 1000 nM
T35 construct: RSK2(Kin.Dom.1-N-terminal); purchased Eurofins DiscoverX Corporation
Protocol: as §1

SNARK = target: T36, SNARK (Homo sapiens, UniProt Q9H093); conditions: 1000 nM
T36 construct: purchased Eurofins DiscoverX Corporation
Protocol: as §1

SRC = target: T37, SRC (Homo sapiens, UniProt P12931); conditions: 1000 nM
T37 construct: purchased Eurofins DiscoverX Corporation
Protocol: as §1

SRPK3 = target: T38, SRPK3 (Homo sapiens, UniProt Q9UPE1); conditions: 1000 nM
T38 construct: purchased Eurofins DiscoverX Corporation
Protocol: as §1

TRKA (NTRK1) = target: T39, TRKA (NTRK1) (Homo sapiens, UniProt P04629)
T39 construct: purchased Eurofins DiscoverX Corporation
T39 sequence (P04629 33-796): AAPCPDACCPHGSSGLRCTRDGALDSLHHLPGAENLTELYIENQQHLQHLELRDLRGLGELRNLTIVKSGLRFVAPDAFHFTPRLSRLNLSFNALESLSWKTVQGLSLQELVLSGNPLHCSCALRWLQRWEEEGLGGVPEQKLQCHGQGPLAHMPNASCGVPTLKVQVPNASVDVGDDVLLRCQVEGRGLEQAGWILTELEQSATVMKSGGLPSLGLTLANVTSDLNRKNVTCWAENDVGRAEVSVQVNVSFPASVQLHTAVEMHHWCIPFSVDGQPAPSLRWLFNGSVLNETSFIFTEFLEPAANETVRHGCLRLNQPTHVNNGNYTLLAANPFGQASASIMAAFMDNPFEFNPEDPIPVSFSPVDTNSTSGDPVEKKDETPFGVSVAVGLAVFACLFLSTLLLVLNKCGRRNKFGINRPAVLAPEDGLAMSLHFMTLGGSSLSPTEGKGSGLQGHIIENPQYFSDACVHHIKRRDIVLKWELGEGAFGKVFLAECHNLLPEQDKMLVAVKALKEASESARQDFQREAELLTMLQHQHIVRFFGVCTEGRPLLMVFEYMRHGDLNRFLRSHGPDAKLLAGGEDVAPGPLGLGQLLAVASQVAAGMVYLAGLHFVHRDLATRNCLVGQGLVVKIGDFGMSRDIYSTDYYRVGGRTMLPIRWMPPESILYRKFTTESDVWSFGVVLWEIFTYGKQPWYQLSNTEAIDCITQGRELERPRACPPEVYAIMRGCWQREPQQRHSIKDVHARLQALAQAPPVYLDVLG
Protocol: as §1

TSSK1B = target: T40, TSSK1B (Homo sapiens, UniProt Q9BXA7); conditions: 1000 nM
T40 construct: purchased Eurofins DiscoverX Corporation
Protocol: as §1

ULK2 = target: T41, ULK2 (Homo sapiens, UniProt Q8IYT8); conditions: 1000 nM
T41 construct: purchased Eurofins DiscoverX Corporation
Protocol: as §1

T1 sequence (Q8NI60 163-647): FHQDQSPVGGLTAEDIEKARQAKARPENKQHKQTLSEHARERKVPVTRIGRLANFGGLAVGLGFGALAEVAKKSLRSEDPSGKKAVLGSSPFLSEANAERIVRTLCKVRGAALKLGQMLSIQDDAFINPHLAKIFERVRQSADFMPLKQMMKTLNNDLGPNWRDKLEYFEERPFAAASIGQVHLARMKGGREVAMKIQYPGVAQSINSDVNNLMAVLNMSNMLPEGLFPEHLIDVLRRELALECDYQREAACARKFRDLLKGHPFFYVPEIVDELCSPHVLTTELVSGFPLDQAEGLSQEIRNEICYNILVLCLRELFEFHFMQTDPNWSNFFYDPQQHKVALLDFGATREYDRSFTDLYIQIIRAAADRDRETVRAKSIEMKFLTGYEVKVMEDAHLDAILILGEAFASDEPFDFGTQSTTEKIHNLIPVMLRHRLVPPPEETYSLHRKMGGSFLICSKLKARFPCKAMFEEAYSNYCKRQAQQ

C#Cc1cn([C@@H]2S[C@H](CO)[C@@H](O)[C@H]2O)c2ncnc(N)c12 [Compound 1g, (2R,3R,4S,5R)-2-(4-Amino-5-ethynyl-7H-pyrrolo[2,3-d]pyrimidin-7-yl)-5-(hydroxymethyl)tetrahydrothiophene-3,4-diol]
inhibition at 1 µM (ADCK3): 8% | inhibition at 1 µM (AKT2): 4% | inhibition at 1 µM (ALK): 31% | inhibition at 1 µM (AURKB): 0% | inhibition at 1 µM (BRAF(V600E)): 0% | inhibition at 1 µM (BTK): 0% | inhibition at 1 µM (CDK11): 72.1% | inhibition at 1 µM (CDK7): 52.3% | inhibition at 1 µM (CDK9): 4% | inhibition at 1 µM (CSF1R): 20% | remaining binding at 1 µM (CSNK1D; 1 μM, read-out: activity remaining, CK1δ (CSNK1D)): < 20% | inhibition at 1 µM (CSNK1D; 1000 nM, CSNK1D): 91.3% | inhibition at 1 µM (CSNK1G2): 54% | inhibition at 1 µM (EPHA2): 28% | inhibition at 1 µM (ERBB4): 3% | inhibition at 1 µM (FGFR3): 10% | inhibition at 1 µM (GSK3B): 0% | inhibition at 1 µM (IKK-alpha): 10% | inhibition at 1 µM (IKK-beta): 0% | inhibition at 1 µM (INSR): 5% | inhibition at 1 µM (KIT(D816V)): 22% | inhibition at 1 µM (KIT(V559D,T670I)): 17% | inhibition at 1 µM (LKB1): 2% | inhibition at 1 µM (MAPKAPK2): 0% | inhibition at 1 µM (MARK3): 0% | inhibition at 1 µM (MEK2): 69% | inhibition at 1 µM (PAK4): 50% | inhibition at 1 µM (PDGFRA): 0% | inhibition at 1 µM (PDPK1): 11% | inhibition at 1 µM (PIK3CA): 7% | inhibition at 1 µM (PIM1): 37% | inhibition at 1 µM (PIM3): 25% | inhibition at 1 µM (PKAC-alpha): 11% | inhibition at 1 µM (RET): 11% | inhibition at 1 µM (ROCK2): 27% | inhibition at 1 µM [1]: 55% | inhibition at 1 µM (SNARK): 0% | inhibition at 1 µM (SRC): 6% | inhibition at 1 µM (SRPK3): 6% | remaining binding at 1 µM (TRKA (NTRK1); 1 μM): < 20% | inhibition at 1 µM (TRKA (NTRK1); 1000 nM, TRKA (NTRK1)): 95.1% | inhibition at 1 µM (TSSK1B): 16% | inhibition at 1 µM (ULK2): 0%
